{"source": "patent US9932340B2", "about": "“Substituted indoles” (AbbVie Inc., priority 2014, dated 2018)", "data": [{"biological_target": "SUV420H1 enzyme (Homo sapiens, UniProt Q4FZB7)", "sequence (Q4FZB7 whole entry)": "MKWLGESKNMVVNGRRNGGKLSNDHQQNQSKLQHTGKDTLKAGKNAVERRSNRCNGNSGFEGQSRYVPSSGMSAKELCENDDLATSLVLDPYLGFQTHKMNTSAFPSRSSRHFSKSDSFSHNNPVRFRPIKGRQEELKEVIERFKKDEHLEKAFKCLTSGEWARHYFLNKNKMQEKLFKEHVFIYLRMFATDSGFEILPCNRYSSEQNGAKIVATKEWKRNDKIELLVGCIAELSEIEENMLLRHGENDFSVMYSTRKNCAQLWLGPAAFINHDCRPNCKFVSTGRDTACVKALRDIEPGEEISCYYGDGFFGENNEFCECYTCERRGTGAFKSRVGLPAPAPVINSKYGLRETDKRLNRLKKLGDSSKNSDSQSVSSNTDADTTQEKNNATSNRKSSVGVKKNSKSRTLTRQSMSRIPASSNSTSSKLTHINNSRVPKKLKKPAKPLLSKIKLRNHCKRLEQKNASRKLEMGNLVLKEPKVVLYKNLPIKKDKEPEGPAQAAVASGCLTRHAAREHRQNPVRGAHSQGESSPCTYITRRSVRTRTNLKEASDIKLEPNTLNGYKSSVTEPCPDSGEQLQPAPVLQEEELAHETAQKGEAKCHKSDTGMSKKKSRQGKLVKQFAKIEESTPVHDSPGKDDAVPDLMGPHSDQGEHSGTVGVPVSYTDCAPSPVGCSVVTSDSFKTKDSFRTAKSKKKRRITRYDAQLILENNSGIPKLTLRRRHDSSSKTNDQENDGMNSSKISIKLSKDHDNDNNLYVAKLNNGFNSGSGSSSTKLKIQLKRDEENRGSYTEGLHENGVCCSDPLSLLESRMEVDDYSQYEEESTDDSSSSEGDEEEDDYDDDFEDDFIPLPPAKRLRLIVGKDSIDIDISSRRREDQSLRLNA", "test": "TR-FRET SAH SUV420H1 enzyme inhibition assay", "type": "biochemical", "conditions": "Histone Peptide H4(8-30)me1 and SAM, overnight at room temp, TR-FRET detection of SAH, read-out: TR-FRET SAH_SUV420H1 IC50", "summary_of_the_method": "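SUV420H1 (90 nM) preincubated 30 min with compound (3-fold dilutions, 50 to 0.00075 μM), then H4(8-30)me1 peptide 5 nM and SAM 4 nM added, overnight at room temp. SAH product detected by TR-FRET with Tb anti-SAH antibody and Oregon Green-SAH in RIPA buffer, 4 h; IC50 from Hill fit, asymptotes fixed 0-100%.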", "units": {"IC50": "nM"}, "values": [{"compound": "Cc1noc(C)c1C(=O)NCc1cc2cc(-c3cccc(C(=O)NC4CC4)c3)cc(Cn3cnc4c(N)ncnc43)c2[nH]1", "note": "[Example 178, N-({7-[(6-amino-9H-purin-9-yl)methyl]-5-[3-(cyclopropylcarbamoyl)phenyl]-1H-indol-2-yl}methyl)-3,5-dimethyl-1,2-oxazole-4-carboxamide]", "IC50": 116}, {"compound": "Cc1noc(C)c1C(=O)NCc1cc2cc(-c3cccc(N4CCOCC4)c3)cc(Cn3cnc4c(N)ncnc43)c2[nH]1", "note": "[Example 179, N-({7-[(6-amino-9H-purin-9-yl)methyl]-5-[3-(morpholin-4-yl)phenyl]-1H-indol-2-yl}methyl)-3,5-dimethyl-1,2-oxazole-4-carboxamide]", "IC50": 365}, {"compound": "Cc1noc(C)c1C(=O)NCc1cc2cc(-c3cccc(C(=O)N4CCOCC4)c3)cc(Cn3cnc4c(N)ncnc43)c2[nH]1", "note": "[Example 180, N-({7-[(6-amino-9H-purin-9-yl)methyl]-5-[3-(morpholin-4-ylcarbonyl)phenyl]-1H-indol-2-yl}methyl)-3,5-dimethyl-1,2-oxazole-4-carboxamide]", "IC50": 130}, {"compound": "CCc1oncc1C(=O)NCc1cc2cc(Cl)cc(Cn3cnc4c(N)ncnc43)c2[nH]1", "note": "[Example 181, N-({7-[(6-amino-9H-purin-9-yl)methyl]-5-chloro-1H-indol-2-yl}methyl)-5-ethyl-1,2-oxazole-4-carboxamide]", "IC50": 2860}, {"compound": "Cc1cc(C(=O)NCc2cc3cc(Cl)cc(Cn4cnc5c(N)ncnc54)c3[nH]2)nn1C", "note": "[Example 182, N-({7-[(6-amino-9H-purin-9-yl)methyl]-5-chloro-1H-indol-2-yl}methyl)-1,5-dimethyl-1H-pyrazole-3-carboxamide]", "IC50": 5200}, {"compound": "Cc1cc(C(=O)NCc2cc3cc(Cl)cc(Cn4cnc5c(N)ncnc54)c3[nH]2)n(C)n1", "note": "[Example 183, N-({7-[(6-amino-9H-purin-9-yl)methyl]-5-chloro-1H-indol-2-yl}methyl)-1,3-dimethyl-1H-pyrazole-5-carboxamide]", "IC50": 1780}, {"compound": "Cc1nn(C)cc1C(=O)NCc1cc2cc(Cl)cc(Cn3cnc4c(N)ncnc43)c2[nH]1", "note": "[Example 184, N-({7-[(6-amino-9H-purin-9-yl)methyl]-5-chloro-1H-indol-2-yl}methyl)-1,3-dimethyl-1H-pyrazole-4-carboxamide]", "IC50": 840}, {"compound": "CCc1onc(C)c1C(=O)NCc1cc2cc(Cl)cc(Cn3cnc4c(N)ncnc43)c2[nH]1", "note": "[Example 185, N-({7-[(6-amino-9H-purin-9-yl)methyl]-5-chloro-1H-indol-2-yl}methyl)-5-ethyl-3-methyl-1,2-oxazole-4-carboxamide]", "IC50": 691}, {"compound": "CCc1noc(C)c1C(=O)NCc1cc2cc(Cl)cc(Cn3cnc4c(N)ncnc43)c2[nH]1", "note": "[Example 186, N-({7-[(6-amino-9H-purin-9-yl)methyl]-5-chloro-1H-indol-2-yl}methyl)-3-ethyl-5-methyl-1,2-oxazole-4-carboxamide]", "IC50": 263}, {"compound": "CC(C)c1oncc1C(=O)NCc1cc2cc(Cl)cc(Cn3cnc4c(N)ncnc43)c2[nH]1", "note": "[Example 187, N-({7-[(6-amino-9H-purin-9-yl)methyl]-5-chloro-1H-indol-2-yl}methyl)-5-(propan-2-yl)-1,2-oxazole-4-carboxamide]", "IC50": 1870}, {"compound": "CCn1nc(C)c(C(=O)NCc2cc3cc(Cl)cc(Cn4cnc5c(N)ncnc54)c3[nH]2)c1C", "note": "[Example 188, N-({7-[(6-amino-9H-purin-9-yl)methyl]-5-chloro-1H-indol-2-yl}methyl)-1-ethyl-3,5-dimethyl-1H-pyrazole-4-carboxamide]", "IC50": 507}, {"compound": "Nc1ncnc2c1ncn2Cc1cc(Cl)cc2cc(CNC(=O)c3cnoc3C3CC3)[nH]c12", "note": "[Example 189, N-({7-[(6-amino-9H-purin-9-yl)methyl]-5-chloro-1H-indol-2-yl}methyl)-5-cyclopropyl-1,2-oxazole-4-carboxamide]", "IC50": 3360}, {"compound": "Cc1noc(C2CC2)c1C(=O)NCc1cc2cc(Cl)cc(Cn3cnc4c(N)ncnc43)c2[nH]1", "note": "[Example 190, N-({7-[(6-amino-9H-purin-9-yl)methyl]-5-chloro-1H-indol-2-yl}methyl)-5-cyclopropyl-3-methyl-1,2-oxazole-4-carboxamide]", "IC50": 910}, {"compound": "Cn1nc(C(=O)NCc2cc3cc(Cl)cc(Cn4cnc5c(N)ncnc54)c3[nH]2)c2c1CCC2", "note": "[Example 191, N-({7-[(6-amino-9H-purin-9-yl)methyl]-5-chloro-1H-indol-2-yl}methyl)-1-methyl-1,4,5,6-tetrahydrocyclopenta[c]pyrazole-3-carboxamide]", "IC50": 2980}, {"compound": "Nc1ncnc2c1ncn2Cc1cc(Cl)cc2cc(CNC(=O)c3cnn4c3CCCC4)[nH]c12", "note": "[Example 192, N-({7-[(6-amino-9H-purin-9-yl)methyl]-5-chloro-1H-indol-2-yl}methyl)-4,5,6,7-tetrahydropyrazolo[1,5-a]pyridine-3-carboxamide]", "IC50": 2140}, {"compound": "Nc1ncnc2c1ncn2Cc1cc(Cl)cc2cc(CNC(=O)c3cnccn3)[nH]c12", "note": "[Example 193, N-({7-[(6-amino-9H-purin-9-yl)methyl]-5-chloro-1H-indol-2-yl}methyl)pyrazine-2-carboxamide]", "IC50": 20000}, {"compound": "Nc1ncnc2c1ncn2Cc1cc(Cl)cc2cc(C(N)c3ccccc3)[nH]c12", "note": "(stereo not drawn) [Example 194, 9-({2-[amino(phenyl)methyl]-5-chloro-1H-indol-7-yl}methyl)-9H-purin-6-amine]", "IC50": 1950}, {"compound": "Nc1ncnc2c1ncn2Cc1cc(Cl)cc2cc(CNC(=O)c3ccccn3)[nH]c12", "note": "[Example 195, N-({7-[(6-amino-9H-purin-9-yl)methyl]-5-chloro-1H-indol-2-yl}methyl)pyridine-2-carboxamide]", "IC50": "> 50000"}, {"compound": "Nc1ncnc2c1ncn2Cc1cc(Cl)cc2cc(CNC(=O)c3cccnc3)[nH]c12", "note": "[Example 196, N-({7-[(6-amino-9H-purin-9-yl)methyl]-5-chloro-1H-indol-2-yl}methyl)pyridine-3-carboxamide]", "IC50": 905}, {"compound": "Nc1ncnc2c1ncn2Cc1cc(Cl)cc2cc(CNC(=O)c3cccc(O)n3)[nH]c12", "note": "[Example 197, N-({7-[(6-amino-9H-purin-9-yl)methyl]-5-chloro-1H-indol-2-yl}methyl)-6-hydroxypyridine-2-carboxamide]", "IC50": 1070}, {"compound": "Nc1ncnc2c1ncn2Cc1cc(Cl)cc2cc(CNC(=O)c3ccc[nH]c3=O)[nH]c12", "note": "[Example 198, N-({7-[(6-amino-9H-purin-9-yl)methyl]-5-chloro-1H-indol-2-yl}methyl)-2-oxo-1,2-dihydropyridine-3-carboxamide]", "IC50": 12600}, {"compound": "Cc1nnccc1C(=O)NCc1cc2cc(Cl)cc(Cn3cnc4c(N)ncnc43)c2[nH]1", "note": "[Example 199, N-({7-[(6-amino-9H-purin-9-yl)methyl]-5-chloro-1H-indol-2-yl}methyl)-3-methylpyridazine-4-carboxamide]", "IC50": 93.9}, {"compound": "Cc1nnccc1C(=O)NCc1cc2cc(C3=CCNCC3)cc(Cn3cnc4c(N)ncnc43)c2[nH]1", "note": "[Example 200, N-({7-[(6-amino-9H-purin-9-yl)methyl]-5-(1,2,3,6-tetrahydropyridin-4-yl)-1H-indol-2-yl}methyl)-3-methylpyridazine-4-carboxamide]", "IC50": 100}, {"compound": "Cc1nnccc1C(=O)NCc1cc2cc(C3=CCC(F)(F)CC3)cc(Cn3cnc4c(N)ncnc43)c2[nH]1", "note": "[Example 201, N-({7-[(6-amino-9H-purin-9-yl)methyl]-5-(4,4-difluorocyclohex-1-en-1-yl)-1H-indol-2-yl}methyl)-3-methylpyridazine-4-carboxamide]", "IC50": 58.9}]}]}
